We go through one compound from patent US10203334B2, “Methods and compositions related to nucleic acid binding assays” (Nubad, LLC, priority 2012, dated 2019).

Molecules are shown by their SMILES.

Data set [1] relates to d(GGGGCCCC)2. In kind it is physicochemical. The text has this: (§1) The local electrostatic potential (Ψ) in the major groove is given by the following Equation 3. Ψ=−[R·T·ln 10/(NA·e)]ΔpKa Eq. (3) Where ΔpKa is the difference between the free Fluorescein-neomycin and the Fluorescein-neomycin in the presence of the electrostatic environment, R is the universal gas constant, T is the absolute temperature in kelvin, NA is the Avogadro constant, and e is the elementary charge. R=8.312 J mol−1K−1, T=298.2K, NA=6.023×10^23 and e=1.602×10^−19; Ψ is expressed in mV. Thus a shift of +1 in the value of the pKa implies an electrostatic potential of […]. […] Based on this Δpka of 0.86, the electrostatic potential of the microenvironment for the fluorescein moiety in the complex is determined to be −50.9 mV.
(§2) Determination of the pKa was done using chemometric analysis of the absorption profiles at various pH values of the covalently attached fluorescein moiety (Kubista, M., et al., (1993) Anal. Chem. 65, 994-998, Kubista, M., et al., (1995) Anal. Chim. Acta. 302, 121-125.2, 3). The pH dependent absorption profile of free fluorescein-neomycin was first analyzed to determine its pKa. […] The electrostatic potential (P) calculated from the shift in pKa, and the ITC derived binding constant (K). Electrostatic potential experiments performed in 100 mM NaCl, 10 mM SC, 0.5 mM EDTA at 25° C. ITC experiments performed in 50 mM KCl, 10 mM SC, 0.5 mM EDTA (pH 6.0) at 25° C. […] Fluorescein-neomycin concentration was 10 μM. Table 1 represents the pKa values determined from the inflection point of the pH dependent absorbance scans of free fluorescein-neomycin, fluorescein-neomycin with one molar equivalent d(CCCCGGGG)2 and d(GGGGCCCC)2. The electrostatic potential (Y) calculated from the shift in pKa, and the ITC derived binding constant (K).

The test system of data set [2] is d(CCCCGGGG)2. In kind it is physicochemical.
Description: as §1, §2

Data set [3] has as its system E. coli rRNA A-site oligonucleotide (SEQ ID NO. 1). As to the kind of experiment: Fluorescence titration of F-neo with bacterial rRNA A-site oligonucleotide and titration of the complex with neomycin. The format is binding. The conditions noted are these: 1:1 stoichiometric ratio of conjugate and A-site oligonucleotide; pH 7.0. The text has this:
This compound F-neo or 42a is a fluorescein conjugate coupled through the 5″ OH position of the ribose ring of neomycin B (H. Xi, E. Davis, N. Ranjan, L. Xue, D. Hyde-Volpe, D. P. Arya, Thermodynamics of nucleic Acid “shape readout” by an aminosugar, Biochemistry. 50 (2011) 9088-9113). E. coli rRNA Asite oligonucleotide (SEQ ID NO. 1, […]) is a synthetic RNA sequence 27 bases long designed to mimic the ribosomal A-site. The A-site oligonucleotide (SEQ ID NO. 1) is titrated into F-neo (42a) to give a concentration dependent loss of fluorescence of F-neo (42a). […]
The effect of bacterial A-site oligonucleotide (SEQ ID No. 1) on the fluorescence emission intensity of a fluorescein-neomycin conjugate (F-neo or 42a) is recorded in FIG. 2. […]
The F-neo (42a) can be competitively displaced from the A-site RNA oligonucleotide (SEQ ID No. 1) by the addition of non-fluorescent RNA binding drugs. Titrating neomycin into the F-neo (42a):A-site complex increases the fluorescence in a dose dependent manner that saturates at a 1:1 stoichiometric ratio of drug-to-complex. Additionally, a strong signal window, measured as an increase in fluorescence is present at a 3:1 molar ratio, and a maximum change in fluorescence at approximately 10:1 molar ratio. […] Fluorescence emission intensity (517 nm) of 0.3 mM A-site oligonucletide/F-neo complex solution increased with increasing concentration of neomycin. […]

Data set [4] relates to 13 different nucleic acid structures. The experiment in a line: Competition dialysis, whole panel. The conditions noted are these: Na^+ concentration increases from 100 to 200 mM. The format is binding. The text has this: Disclosed is the use of fluorescent aminosugar probes such as F-neo (42a) to probe a variety of nucleic acid targets. Competition dialysis was used as a nucleic acid screening technique to illustrate the binding of F-neo (42a) to different nucleic acid structures.
Competition dialysis studies using a fluorescein-neomycin conjugate (F-neo (42a)). […] Comparative binding of F-neo (42a) to 13 different nucleic acid structures was examined which included single strand nucleic acids [poly(dT), poly(A), poly(U)], duplexes [poly(dA).poly(dT), poly(rA).poly(dT), poly(rA).poly(rU), poly(dA).poly(rU), poly(dG).poly(dC), calf thymus], triplexes [poly(dA).2poly(dT), poly(rA).2poly(rU)], i-motif (polydC) and 16S A-site rRNA (SEQ ID No. 1). The amount of F-neo (42a) bound to each nucleic acid is shown as a bar graph in FIG. 13. Because all nucleic acids are dialyzed simultaneously in the same ligand solution, the amount of bound F-neo (42a) is directly proportional to its affinity for each nucleic acid. […] 200 μL of different nucleic acids (7.5 μM per monomeric unit of each polymer) was dialyzed for 72 h with 400 mL 100 nM ligand in 6 mM Na2HPO4, 2 mM NaH2PO4, 1 mM Na2EDTA, pH 7.0 and various Na+ concentrations as indicated.
The binding of F-neo (42a) to nucleic acids is affected by the salt concentration. […]

[5] abbreviates: electrostatic potential calculated from the shift in pKa.
Setting [6] is: versus free fluorescein-neomycin.

Broadly, the pKa is the negative logarithm of the acid dissociation constant. Take `NCC1O[C@H](OC2C(O)C(OC3C(O)[C@H](N)CC(N)[C@H]3O[C@H]3OC(CN)[C@@H](O)C(O)C3N)O[C@@H]2CSCCNC(=O)CCSCC(=O)Nc2ccc(-c3c4ccc(=O)cc-4oc4cc(O)ccc34)c(C(=O)O)c2)C(N)C(O)[C@@H]1O` (some centres unmarked) [F-neo (42a), Neomycin-Fluorescein Conjugate]: the “Ψ (mV)” value is listed as −25.61 mV in data set [1] (setting [5]) and −15.13 mV in data set [2] (setting [5]). In addition, the pKa in data set [1] (one molar equivalent d(GGGGCCCC)2, 100 mM NaCl, 10 mM SC, 0.5 mM EDTA at 25° C.) is given as 7.01; in data set [2] (one molar equivalent d(CCCCGGGG)2, 100 mM NaCl, 10 mM SC, 0.5 mM EDTA at 25° C.) it was 6.83. The ΔpKa in data set [1] (setting [6]) is 0.44; in data set [2] (setting [6]), 0.26. Moreover, in data set [3], the “reduction in fluorescence emission intensity” value is reported as 3 fold. Also, the “decrease of amount bound for each nucleic acid structure” value in data set [4] is given as 4-5 times.
